How the values were obtained:
B-RAF V600E = target: T1, B-RAF V600E (Homo sapiens, UniProt P15056, V600E); test: Target protein degradation, assay A: T-Rex 293 cells, HA-B-RAF_V600E, 96 well format; format: cell-based; conditions: T-Rex 293 HA-B-RAF_V600E cells, 24 hours, Examples 1-82
T1 construct: expressed in transfected cells; host or cells: T-Rex 293 cells (Invitrogen #R71007)
Summary of the method: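 T-Rex 293 cells stably expressing doxycycline-inducible HA-B-RAF V600E (1 ng/mL doxycycline) treated 24 h at 37 °C with compound, final 1 μM to 0.1 nM in 0.1% DMSO. Fixed, permeabilized cells immunostained for HA and imaged by high-content microscopy; DC50 and Dmax (% of control) reported.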

B-RAF G466V = target: T2, B-RAF G466V (Homo sapiens, UniProt P15056, G466V); test: Target protein degradation, assay B: T-Rex 293 cells, HA-B-RAF_G466V, 96 well format; format: cell-based; conditions: T-Rex 293 HA-B-RAF_G466V cells, 24 hours, Examples 1-82
T2 construct: expressed in transfected cells; host or cells: T-Rex 293 cells (Invitrogen #R71007)
T2 sequence (P15056 whole entry G466V): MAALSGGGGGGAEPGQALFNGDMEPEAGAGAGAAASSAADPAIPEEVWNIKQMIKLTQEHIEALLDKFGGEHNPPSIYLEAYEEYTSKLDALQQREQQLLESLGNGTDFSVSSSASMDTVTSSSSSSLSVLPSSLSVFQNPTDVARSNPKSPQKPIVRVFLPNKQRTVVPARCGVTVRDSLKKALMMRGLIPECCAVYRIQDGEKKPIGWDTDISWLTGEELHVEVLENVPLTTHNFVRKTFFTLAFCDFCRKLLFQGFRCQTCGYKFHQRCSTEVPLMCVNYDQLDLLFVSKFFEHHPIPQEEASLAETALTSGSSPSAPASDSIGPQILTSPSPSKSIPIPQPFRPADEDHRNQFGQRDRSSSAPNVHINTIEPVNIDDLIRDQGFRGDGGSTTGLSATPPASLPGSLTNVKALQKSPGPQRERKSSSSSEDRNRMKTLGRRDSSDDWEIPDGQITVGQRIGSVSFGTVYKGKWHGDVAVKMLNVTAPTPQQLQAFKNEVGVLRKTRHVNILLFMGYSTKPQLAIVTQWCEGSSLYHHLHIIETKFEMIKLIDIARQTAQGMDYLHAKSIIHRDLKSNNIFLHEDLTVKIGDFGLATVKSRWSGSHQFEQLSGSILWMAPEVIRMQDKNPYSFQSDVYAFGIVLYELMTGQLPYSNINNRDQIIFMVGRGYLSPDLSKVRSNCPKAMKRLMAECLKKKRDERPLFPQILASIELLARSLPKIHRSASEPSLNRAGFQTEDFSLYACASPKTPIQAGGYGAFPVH
Summary of the method: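 T-Rex 293 cells stably carrying doxycycline-inducible HA-B-RAF G466V (0.75 ng/mL doxycycline) treated 24 h at 37 °C with compound, 30 nM to 3 pM final, 0.1% DMSO. Fixed, permeabilised, anti-HA immunofluorescence quantified by high-content imaging; DC50 and Dmax (% of control) derived.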

T1 sequence (P15056 whole entry V600E): as the sequence (P15056 whole entry G466V) above, with V466G, V600E counted along it

| Compound | DC50 (B-RAF V600E) [nM] | Dmax (B-RAF V600E) [%] | DC50 (B-RAF G466V) [nM] | Dmax (B-RAF G466V) [%] |
| --- | --- | --- | --- | --- |
| N#Cc1c(NS(=O)(=O)N2CC[C@@H](F)C2)ccc(F)c1Oc1ccc2ncn(-c3ccc(N4CCN(CC5CN(c6ccc7c(c6)CN(C6CCC(=O)NC6=O)C7=O)C5)CC4)cc3)c(=O)c2c1 (stereo partly drawn) [Example 2, (3R)—N-{2-cyano-3-[(3-{4-[4-({1-[2-(2,6-dioxopiperidin-3-yl)-1-oxo-2,3-dihydro-1H-isoindol-5-yl]azetidin-3-yl}methyl)piperazin-1-yl]phenyl}-4-oxo-3,4-dihydroquinazolin-6-yl)oxy]-4-fluorophenyl}-3-fluoropyrrolidine-1-sulfonamide] | 50 to 500 | ≤ 35 | ≤ 1 | 35 to 70 |
| N#Cc1c(NS(=O)(=O)N2CC[C@@H](F)C2)ccc(F)c1Oc1ccc2ncn(-c3ccc(N4CCN(c5ccc(C(=O)NC6CCC(=O)NC6=O)c(F)c5)CC4)cc3)c(=O)c2c1 (stereo partly drawn) [Example 72, 4-[4-(4-{6-[2-cyano-6-fluoro-3-({[(3R)-3-fluoropyrrolidin-1-yl]sulfonyl}amino)phenoxy]-4-oxo-3,4-dihydroquinazolin-3-yl}phenyl)piperazin-1-yl]-N-(2,6-dioxopiperidin-3-yl)-2-fluorobenzamide] | > 500 | – | > 30 | – |
| N#Cc1c(NS(=O)(=O)N2CC[C@@H](F)C2)ccc(F)c1Oc1ccc2ncn(-c3ccc(N4CCN(CC5CCN(c6ccc7c(c6)CN([C@H]6CCC(=O)NC6=O)C7=O)CC5)CC4)cc3)c(=O)c2c1 [Example 77, (3R)—N-(2-cyano-3-{[3-(4-{4-[(1-{2-[(3S)-2,6-dioxopiperidin-3-yl]-1-oxo-2,3-dihydro-1H-isoindol-5-yl}piperidin-4-yl)methyl]piperazin-1-yl}phenyl)-4-oxo-3,4-dihydroquinazolin-6-yl]oxy}-4-fluorophenyl)-3-fluoropyrrolidine-1-sulfonamide] | 50 to 500 | 35 to 70 | 1 to 10 | 35 to 70 |
| N#Cc1c(NS(=O)(=O)N2CC[C@@H](F)C2)ccc(F)c1Oc1ccc2ncn(-c3ccc(N4CCN(C(=O)CC5(O)CCN(c6ccc(NC7CCC(=O)NC7=O)cc6F)CC5)CC4)cc3)c(=O)c2c1 (stereo partly drawn) [Example 67, (3R)-N-{2-cyano-3-[(3-(4-{4-[2-(1-{4-[(2,6-dioxopiperidin-3-yl)amino]-2-fluorophenyl}-4-hydroxypiperidin-4-yl)acetyl]piperazin-1-yl}phenyl)-4-oxo-3,4-dihydroquinazolin-6-yl]oxy}-4-fluorophenyl)-3-fluoropyrrolidine-1-sulfonamide] | 50 to 500 | 35 to 70 | > 30 | – |
| N#Cc1c(NS(=O)(=O)N2CC[C@@H](F)C2)ccc(F)c1Oc1ccc2ncn(-c3ccc(N4CCC(CN5CCC(c6ccc7c(c6F)CN(C6CCC(=O)NC6=O)C7=O)CC5)CC4)cc3)c(=O)c2c1 (stereo partly drawn) [Example 79, (3R)—N-{2-cyano-3-[(3-{4-[4-({4-[2-(2,6-dioxopiperidin-3-yl)-4-fluoro-1-oxo-2,3-dihydro-1H-isoindol-5-yl]piperidin-1-yl}methyl)piperidin-1-yl]phenyl}-4-oxo-3,4-dihydroquinazolin-6-yl)oxy]-4-fluorophenyl}-3-fluoropyrrolidine-1-sulfonamide] | 50 to 500 | 35 to 70 | ≤ 1 | 35 to 70 |
| N#Cc1c(NS(=O)(=O)N2CC[C@@H](F)C2)ccc(F)c1Oc1ccc2ncn(-c3cnc(N4CCN(CC5CN(c6ccc7c(c6)CN(C6CCC(=O)NC6=O)C7=O)C5)CC4)nc3)c(=O)c2c1 (stereo partly drawn) [Example 9, (3R)-N-{2-cyano-3-[(3-{2-[4-({1-[2-(2,6-dioxopiperidin-3-yl)-1-oxo-2,3-dihydro-1H-isoindol-5-yl]azetidin-3-yl}methyl)piperazin-1-yl]pyrimidin-5-yl}-4-oxo-3,4-dihydroquinazolin-6-yl)oxy]-4-fluorophenyl}-3-fluoropyrrolidine-1-sulfonamide] | 50 to 500 | 35 to 70 | > 30 | – |
| N#Cc1c(NS(=O)(=O)N2CC[C@@H](F)C2)ccc(F)c1Oc1ccc2ncn(-c3ccc(N4CCN(CC5CCN(c6ccc(F)c(C(=O)NC7CCC(=O)NC7=O)c6)CC5)CC4)cc3)c(=O)c2c1 (stereo partly drawn) [Example 15, 5-(4-{[4-(4-{6-[2-cyano-6-fluoro-3-({[(3R)-3-fluoropyrrolidin-1-yl]sulfonyl}amino)phenoxy]-4-oxo-3,4-dihydroquinazolin-3-yl}phenyl)piperazin-1-yl]methyl}piperidin-1-yl)-N-(2,6-dioxopiperidin-3-yl)-2-fluorobenzamide] | > 500 | – | > 30 | – |
| N#Cc1c(NS(=O)(=O)N2CC[C@@H](F)C2)ccc(F)c1Oc1ccc2ncn(-c3ccc(N4CCN(CC5CCN(c6cccc7c6ccn7C6CCC(=O)NC6=O)CC5)CC4)cc3)c(=O)c2c1 (stereo partly drawn) [Example 74, (3R)—N-{2-cyano-3-[(3-{4-[4-({1-[1-(2,6-dioxopiperidin-3-yl)-1H-indol-4-yl]piperidin-4-yl}methyl)piperazin-1-yl]phenyl}-4-oxo-3,4-dihydroquinazolin-6-yl)oxy]-4-fluorophenyl}-3-fluoropyrrolidine-1-sulfonamide] | 50 to 500 | 35 to 70 | 1 to 10 | ≤ 35 |

Other lines, results leading:

| DC50 (B-RAF V600E) [nM] | Dmax (B-RAF V600E) [%] | DC50 (B-RAF G466V) [nM] | Dmax (B-RAF G466V) [%] | Compound |
| --- | --- | --- | --- | --- |
| 50 to 500 | 35 to 70 | 1 to 10 | ≤ 35 | N#Cc1c(NS(=O)(=O)N2CC[C@@H](F)C2)ccc(F)c1Oc1ccc2ncn(-c3ccn(C4CCN(CC5CCN(c6ccc7c(c6)CN(C6CCC(=O)NC6=O)C7=O)CC5)CC4)n3)c(=O)c2c1 (stereo partly drawn) [Example 75, (3R)—N-{2-cyano-3-[(3-{1-[1-({1-[2-(2,6-dioxopiperidin-3-yl)-1-oxo-2,3-dihydro-1H-isoindol-5-yl]piperidin-4-yl}methyl)piperidin-4-yl]-1H-pyrazol-3-yl}-4-oxo-3,4-dihydroquinazolin-6-yl)oxy]-4-fluorophenyl}-3-fluoropyrrolidine-1-sulfonamide] |
| 50 to 500 | 35 to 70 | 1 to 10 | ≤ 35 | N#Cc1c(NS(=O)(=O)N2CC[C@@H](F)C2)ccc(F)c1Oc1ccc2ncn(-c3ccc(N4CCN(C(=O)CC5(O)CCN(c6ccc(NC7CCC(=O)NC7=O)cc6F)CC5)CC4)nc3)c(=O)c2c1 (stereo partly drawn) [Example 70, (3R)-N-(2-cyano-3-{[3-(6-{4-[2-(1-{4-[(2,6-dioxopiperidin-3-yl)amino]-2-fluorophenyl}-4-hydroxypiperidin-4-yl)acetyl]piperazin-1-yl}pyridin-3-yl)-4-oxo-3,4-dihydroquinazolin-6-yl]oxy}-4-fluorophenyl)-3-fluoropyrrolidine-1-sulfonamide] |
| 5 to 50 | 35 to 70 | > 30 | – | N#Cc1c(NS(=O)(=O)N2CC[C@@H](F)C2)ccc(F)c1Oc1ccc2ncn(-c3ccc(N4CCN(CC5CCN(c6ccc(NC7CCC(=O)NC7=O)cc6F)CC5)CC4)nc3)c(=O)c2c1 (stereo partly drawn) [Example 12, (3R)-N-(2-cyano-3-{[3-(6-{4-[(1-{4-[(2,6-dioxopiperidin-3-yl)amino]-2-fluorophenyl}piperidin-4-yl)methyl]piperazin-1-yl}pyridin-3-yl)-4-oxo-3,4-dihydroquinazolin-6-yl]oxy}-4-fluorophenyl)-3-fluoropyrrolidine-1-sulfonamide] |
| 5 to 50 | 35 to 70 | 1 to 10 | 35 to 70 | N#Cc1c(NS(=O)(=O)N2CC[C@@H](F)C2)ccc(F)c1Oc1ccc2ncn(-c3ccc(N4CCN(CC5CCN(c6ccc7c(c6F)CN([C@H]6CCC(=O)NC6=O)C7=O)CC5)CC4)cc3)c(=O)c2c1 [Example 73, (3R)—N-(2-cyano-3-{[3-(4-{4-[(1-{2-[(3S)-2,6-dioxopiperidin-3-yl]-4-fluoro-1-oxo-2,3-dihydro-1H-isoindol-5-yl}piperidin-4-yl)methyl]piperazin-1-yl}phenyl)-4-oxo-3,4-dihydroquinazolin-6-yl]oxy}-4-fluorophenyl)-3-fluoropyrrolidine-1-sulfonamide] |
